Converted amounts (≈) assume the structure as drawn. Structures can show the parent of a compound that is named as a salt. Where two headings read alike, the source gives them in different places.
What was measured:
[1] = cited from earlier work
[2] = Release of THCL and KTF from oleic acid loaded lenses in PBS at different pH; conditions: release medium pH from 7.4 to 5.5
[3] = cited from earlier work; remark: listed apart in the source

| SMILES | Solubility in water [1] [µM] | release kinetics of KTF as pH decreases [2] | solubility in PBS ([3]; pH 7) [µg/mL] | solubility in PBS ([3]; pH 10) [µg/mL] |
| --- | --- | --- | --- | --- |
| CCCCCCCCCCCCCC(=O)O [Myristic acid] | 1 (≈ 0.228 µg/mL) |  |  |  |
| CN1CCC(=C2c3ccccc3CC(=O)c3sccc32)CC1 [KTF, ketotifen fumarate] |  | accelerated | 10500 | 20 |

From patent US11504323B2, “Boundary surface charged contact lens for delivery” (Lynthera Corporation, priority 2020, dated 2022)
